ChEMBL document CHEMBL1149984, “Hygromycin A: preparation of aminocyclitol analogs defining the minimum functionality required for biological activity” (1992)
In brackets after ≈: the same amount, converted by molar mass.

Legend:
[1] = test system: Brachyspira hyodysenteriae; assay: Minimum inhibitory concentration against Serpulina hyodysenteriae was determined; type: functional
[2] = test system: Pasteurella multocida; assay: Minimum inhibitory concentration against Pasteurella multocida was determined; type: functional
[3] = Brachyspira hyodysenteriae, read-out: MIC
[4] = Pasteurella multocida, read-out: MIC

Structure (SMILES) | MIC [1, 3] [µg/mL] | MIC [2, 4] [µg/mL] | MIC [1] [µg/mL] | MIC [2] [µg/mL]
C=CCOc1ccc(/C=C(\C)C(=O)N[C@@H]2[C@H](O)CCC[C@@H]2O)cc1O | 12.5 (≈ 36 µM) | 100 (≈ 288 µM) |  | 
C=CCOc1ccc(/C=C(\C)C(=O)N[C@@H]2[C@H](O)[C@@H](O)[C@H]3OCO[C@H]3[C@@H]2O)cc1O | 0.78 (≈ 1.91 µM) | 1.56 (≈ 3.83 µM) |  | 
C/C(=C\c1ccc(O[C@@H]2O[C@H]([C@H](C)O)[C@@H](O)[C@@H]2O)c(O)c1)C(=O)N[C@@H]1CCCC[C@@H]1O | > 200 | > 200 |  | 
CC(=O)[C@H]1O[C@@H](Oc2ccc(/C=C(\C)C(=O)N[C@@H]3[C@H](O)[C@@H](O)[C@H]4OCO[C@H]4[C@@H]3O)cc2O)[C@@H](O)[C@@H]1O [HYGROMYCIN A] | 1.56 (≈ 3.05 µM) | 1.56 (≈ 3.05 µM) |  | 
C=CCOc1ccc(/C=C(\C)C(=O)N[C@@H]2[C@H](O)[C@@H](O)CC[C@@H]2O)cc1O (racemic) |  |  | 6.25 (≈ 17.2 µM) | 25 (≈ 68.8 µM)
C=CCOc1ccc(/C=C(\C)C(=O)N[C@@H]2[C@H](O)[C@@H](O)CC[C@@H]2O)cc1O |  |  | 100 (≈ 275 µM) | >200
